# Experimental data: ChEMBL document CHEMBL5728127, “Diarylalkanes as potent inhibitors of binuclear enzymes” (2020)
# Target: T1, Polyphenol oxidase 1 (Agaricus bisporus, UniProt Q00024)
# T1 sequence (Q00024 whole entry): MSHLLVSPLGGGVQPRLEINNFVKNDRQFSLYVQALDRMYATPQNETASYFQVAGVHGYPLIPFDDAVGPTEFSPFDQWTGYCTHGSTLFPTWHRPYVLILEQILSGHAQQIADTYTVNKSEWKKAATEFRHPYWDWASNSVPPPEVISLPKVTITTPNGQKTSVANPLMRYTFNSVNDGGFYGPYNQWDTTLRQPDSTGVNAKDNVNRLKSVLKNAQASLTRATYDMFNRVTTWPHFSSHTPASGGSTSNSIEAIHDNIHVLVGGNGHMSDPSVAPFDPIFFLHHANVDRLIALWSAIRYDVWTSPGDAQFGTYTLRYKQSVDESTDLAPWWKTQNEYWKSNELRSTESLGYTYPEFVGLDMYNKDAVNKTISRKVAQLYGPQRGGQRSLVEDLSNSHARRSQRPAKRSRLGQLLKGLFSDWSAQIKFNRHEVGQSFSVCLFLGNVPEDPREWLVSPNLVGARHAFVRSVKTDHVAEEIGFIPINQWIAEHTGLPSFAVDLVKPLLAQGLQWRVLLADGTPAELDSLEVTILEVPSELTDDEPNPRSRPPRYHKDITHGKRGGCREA
# Assay: Using this method, the conversion of L-Dopa, a substrate of tyrosinase, into dopachrome is followed by monitoring absorption at 450 nm. Tyrosinase was prepared in 50 mM potassium phosphate buffer, pH 6.8 (assay buffer) at 2000 U/ml and stored at −20° C. in 1 ml aliquots prior to use. For use in assays, stock enzyme solutions were thawed and diluted to 200 U/ml with assay buffer. A 2 mM working solution of substrate, L-DOPA, was prepared in assay buffer for each assay. Samples were dissolved in 10% DMSO (0.5 ml) and diluted to 5 ml with assay buffer. The reaction mixture consisted of 0.050 ml 2 mM L-DOPA, 0.050 ml 200 U/ml mushroom tyrosinase and 0.050 ml inhibitor. Reaction volume was adjusted to 200 μl with assay buffer. […] Average velocity was determined from linear enzyme rate as measured by change in absorbance (ΔA450) at 450 nm per minute.
row,SMILES,IC50 [µM]
1,Oc1ccc(CCC(O)c2ccc(O)cc2)cc1 (stereo unspecified),305
2,COc1ccc(CCC(O)c2cc(OC)ccc2O)c(OC)c1 (stereo unspecified),1000
3,COc1cc(O)c(C(O)CCc2ccc(O)c(OC)c2)c(OC)c1 (stereo unspecified),375
4,COc1ccc(CCCc2ccc(O)cc2O)c(OC)c1C,0.24
5,COc1ccc(CCC(O)c2c(O)cc(O)cc2O)cc1O (stereo unspecified),1200
6,CC(Cc1ccc(O)c(O)c1)C(C)Cc1ccc(O)c(O)c1 (stereo unspecified) [NORDIHYDROGUAIARETIC ACID],700

# The remaining lines, values ahead:
row,IC50 [µM],SMILES
1,77,COc1ccc(CC(O)c2ccc(O)cc2O)cc1 (stereo unspecified)
2,8,Nc1ccc(CCC(O)c2c(O)cc(O)cc2O)cc1 (stereo unspecified)
3,1000,Oc1ccc(C(O)Cc2ccc(Cl)cc2Cl)c(O)c1 (stereo unspecified)
4,24,COc1ccc(O)c(CCCc2ccc(O)cc2OC)c1
5,0.7,Oc1ccc(C(O)CCc2ccccc2O)c(O)c1 (stereo unspecified)
